Test results taken from patent US20260166039A1 (SCHRÖDINGER, INC., priority 2022, published 2026).

Molecular target: T1, Wee1 kinase domain (Homo sapiens, UniProt P30291)
T1 construct: Wee1 kinase domain was purchased from Carna (catalog #05-177); purchased Carna 05-177
Assay: Wee1 Kinase Biochemical Assay (ADP-Glo)
Conditions: 15 uM ATP
Method: Wee1 Kinase Biochemical Assay Protocol
Wee1 kinase domain was purchased from Carna (catalog #05-177). Wee1 kinase activity was determined with Poly(Lys,Tyr 4:1) hydrobromide as a substrate (Sigma-Aldrich) and by measuring ADP production using the ADP-Glo Kinase Assay kit (Promega) following the manufacturer's instructions. The kinase reaction was performed using the following conditions:
Buffer: 40 mM Tris-HCl, 20 mM magnesium chloride, supplemented with 0.1 mg/mL bovine serum albumin and 2 mM DTT. The final reaction mix contained 1 nM Wee1 enzyme, 15 uM ATP, and 2 ng/mL Poly(Lys,Tyr 4:1) hydrobromide substrate. The reaction time was 4 hours at 25° C.
The ADP-Glo signal was measured using the Envision plate reader and the percentage inhibition of kinase activity calculated for each inhibitor tested. Percent inhibition of Wee1 kinase activity was calculated based on the following formula.
[formula] • SSample: the signal of compounds • SHigh Ctrl: the signal of high control (DMSO) • SLow Ctrl: the signal of low control (positive control Wee1 inhibitor at saturating concentration)

[1] = class symbols, 1 nM Wee1 enzyme, 4 hours at 25° C.
[2] = 1 nM Wee1 enzyme, 4 hours at 25° C

T1 sequence (P30291 299-569 limits assumed): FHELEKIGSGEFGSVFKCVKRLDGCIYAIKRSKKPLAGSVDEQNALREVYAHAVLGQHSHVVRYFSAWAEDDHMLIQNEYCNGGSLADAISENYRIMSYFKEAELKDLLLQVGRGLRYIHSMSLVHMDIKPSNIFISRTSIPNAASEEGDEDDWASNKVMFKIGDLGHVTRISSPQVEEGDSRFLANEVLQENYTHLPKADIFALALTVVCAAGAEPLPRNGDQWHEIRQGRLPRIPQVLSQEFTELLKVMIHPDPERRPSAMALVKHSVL

Row | SMILES | IC50 [1] [nM] | IC50 (Wee1 kinase domain, ADP-Glo) [nM] | further results
1 | CC1(C)C[C@H]2N(c3cccc([C@H]4CCCN4)n3)c3nc(Nc4ccc(N5CCOCC5)cc4)ncc3[C@@]2(C)CO1 (single isomer, unassigned) [Example 528] | < 10 |  | 
2 | CNCc1cccc(N2c3nc(Nc4ccc([C@@H]5CCOC5)cc4)ncc3[C@]3(C)COC(C)(C)C[C@H]23)n1 (single isomer, unassigned) [Example 37] |  | 100 to 1000 | 
3 | CC1(C)C[C@@H]2N(c3cccc([C@H]4CCNC4)n3)c3nc(Nc4ccc(N5CCOCC5)cc4)ncc3[C@]2(C)CO1 (single isomer, unassigned) [Example 540] | 10 to 100 |  | 
4 | CN[C@H](Cc1ccc(Nc2ncc3c(n2)N(c2cccc(N4C(=O)OC[C@@H]4C)n2)[C@H]2CC(C)(C)OC[C@@]32C)cc1)C(=O)O (single isomer, unassigned) [Example 322] |  | 100 to 1000 | 
5 | C[C@H]1COC(=O)N1c1cccc(N2c3nc(Nc4ccc(N5CCN(C)CC5)nc4)ncc3[C@]3(C)COC(C)(C)C[C@H]23)n1 (single isomer, unassigned) [Example 240] |  | 100 to 1000 | 
6 | CN1CC[C@@H](Oc2ccc(Nc3ncc4c(n3)N(c3cccc(N5CCCC5=O)n3)[C@H]3CC(C)(C)OC[C@@]43C)cc2)C1 [Example 627, 1-(6-((4bS,8aS)-4b,7,7-trimethyl-2-((4-(((R)-1-methylpyrrolidin-3-yl)oxy)phenyl)amino)-4b,7,8,8a-tetrahydropyrano[3′,4′:4,5]pyrrolo[2,3-d]pyrimidin-9(5H)-yl)pyridin-2-yl)pyrrolidin-2-one] | 10 to 100 |  | 
7 | CN1CC(c2ccc(Nc3ncc4c(n3)N(c3cccc(N=S(C)(C)=O)n3)[C@H]3CC(C)(C)OC[C@@]43C)cc2Cl)C1 (single isomer, unassigned) [Example 182] |  | 100 to 1000 | 
8 | CC1(C)C[C@H]2N(c3cccc(N=S(C)(C)=O)n3)c3nc(Nc4ccc5cnnn5c4)ncc3[C@@]2(C)CO1 (single isomer, unassigned) [Example 362] |  | < 10 | 
9 | CNCc1cccc(N2c3nc(Nc4cnn(C)c4)ncc3[C@]3(C)COC(C)(C)C[C@H]23)n1 (single isomer, unassigned) [Example 471] | 100 to 1000 |  | 
10 | CC1(C)C[C@@H]2N(c3ccc4c(n3)[C@](C)(N)CC4)c3nc(Nc4ccc(N5CCOCC5)cc4)ncc3[C@]2(C)CO1 (single isomer, unassigned) [Example 563] | 100 to 1000 |  | 
11 | CN1CC[C@@H](c2ccc(Nc3ncc4c(n3)N(c3cccc(N=S(C)(C)=O)n3)[C@H]3CC(C)(C)OC[C@@]43C)cc2)C1 (single isomer, unassigned) [Example 130] |  | 100 to 1000 | 
12 | CN1CCC[C@H]1c1ccc(Nc2ncc3c(n2)N(c2cccc(N=S(C)(C)=O)n2)[C@H]2CC(C)(C)OC[C@@]32C)cc1 (single isomer, unassigned) [Example 125] |  | 10 to 100 | 
13 | CN1C[C@@H]2C[C@H]1CN2c1ccc(Nc2ncc3c(n2)N(c2cccc(C(C)(C)O)n2)[C@H]2CC(C)(C)OC[C@@]32C)cc1 (single isomer, unassigned) [Example 415] | 100 to 1000 |  | 
14 | CC1(C)C[C@@H]2N(c3cccc([C@H]4CCNC4)n3)c3nc(Nc4ccc(N5CCOCC5)cc4)ncc3[C@]2(C)CO1 (single isomer, unassigned) [Example 541] | 100 to 1000 |  | 
15 | Cc1cc(Nc2ncc3c(n2)N(c2cccc(N=S(C)(C)=O)n2)[C@H]2CC(C)(C)OC[C@@]32C)ccc1[C@@H]1CCN(C)C1 (single isomer, unassigned) [Example 146] |  | 10 to 100 | 
16 | CC1(C)C[C@@H]2N(c3cccc(C4CCNCC4)n3)c3nc(Nc4ccc(N5CCOCC5)cc4)ncc3[C@]2(C)CO1 (single isomer, unassigned) [Example 532] | 100 to 1000 |  | 
17 | CN1CCN(c2ccc(Nc3ncc4c(n3)N(c3ccc(=O)n(C)n3)[C@@H]3CC(C)(C)OC[C@]43C)cc2)CC1 (single isomer, unassigned) [Example 826] |  |  | IC50 [2]: < 10 nM
18 | CC1(C)C[C@H]2N(c3cccc(N=S(C)(C)=O)n3)c3nc(Nc4cncnc4)ncc3[C@@]2(C)CO1 (single isomer, unassigned) [Example 817] |  |  | IC50 [2]: < 10 nM
19 | C[C@H]1COC(=O)N1c1cccc(N2c3nc(Nc4ccc(N5C[C@@H]6C[C@H]5CN6C)c(F)c4)ncc3[C@]3(C)COC(C)(C)C[C@H]23)n1 (single isomer, unassigned) [Example 292] |  | 10 to 100 | 
20 | Cc1cc(Nc2ncc3c(n2)N(c2cccc(N=S(C)(C)=O)n2)[C@H]2CC(C)(C)OC[C@@]32C)ccc1[C@@H]1COCCN1 (single isomer, unassigned) [Example 113] |  | 10 to 100 | 
21 | CC1(C)C[C@H]2N(c3cccc(N=S(C)(C)=O)n3)c3nc(Nc4cn5ccnc5cn4)ncc3[C@@]2(C)CO1 (single isomer, unassigned) [Example 382] |  | 10 to 100 | 
22 | CNCc1cccc(N2c3nc(Nc4ccc(N5CCC(F)(F)CC5)cc4)ncc3[C@]3(C)COC(C)(C)C[C@H]23)n1 (single isomer, unassigned) [Example 15] |  | 10 to 100 | 
23 | C[C@H]1COC(=O)N1c1cccc(N2c3nc(Nc4ccc(OC5CCNCC5)nc4)ncc3[C@]3(C)COC(C)(C)C[C@H]23)n1 (single isomer, unassigned) [Example 324] |  | 100 to 1000 | 
24 | CN[C@H]1CCc2ccc(N3c4nc(Nc5ccc(N6CCOCC6)cc5)ncc4[C@@]4(C)COC(C)(C)C[C@@H]34)nc21 (single isomer, unassigned) [Example 552] | 100 to 1000 |  | 
25 | CC1(C)C[C@H]2N(c3cccc(N=S(C)(C)=O)n3)c3nc(Nc4ccn(C5CCN(C6COC6)CC5)c(=O)c4)ncc3[C@@]2(C)CO1 (single isomer, unassigned) [Example 824] |  |  | IC50 [2]: < 10 nM
26 | CC1(C)C[C@H]2N(c3cccc(N=S(C)(C)=O)n3)c3nc(Nc4cncc(C(F)F)c4)ncc3[C@@]2(C)CO1 (single isomer, unassigned) [Example 815] |  |  | IC50 [2]: < 10 nM
27 | CC1(C)C[C@H]2N(c3cccc(N=S(C)(C)=O)n3)c3nc(Nc4ccc5cnoc5c4)ncc3[C@@]2(C)CO1 (single isomer, unassigned) [Example 381] |  | < 10 | 
28 | C[C@H]1COC(=O)N1c1cccc(N2c3nc(Nc4ccc(N5C[C@@H]6C[C@H]5CN6C)cc4)ncc3[C@]3(C)COC(C)(C)C[C@H]23)n1 (single isomer, unassigned) [Example 244] |  | 10 to 100 | 

Second part, led by results:

Row | IC50 [1] [nM] | IC50 (Wee1 kinase domain, ADP-Glo) [nM] | SMILES | further results
29 | 10 to 100 |  | CN1C[C@@H]2CN(c3ccc(Nc4ncc5c(n4)N(c4cccc(N6CCCC6=O)n4)[C@H]4CC(C)(C)OC[C@@]54C)cc3)C[C@@H]2C1 [Example 695, 1-(6-((4bS,8aS)-4b,7,7-trimethyl-2-((4-((3aR,6aS)-5-methylhexahydropyrrolo[3,4-c]pyrrol-2(1H)-yl)phenyl)amino)-4b,7,8,8a-tetrahydropyrano[3′,4′:4,5]pyrrolo[2,3-d]pyrimidin-9(5H)-yl)pyridin-2-yl)pyrrolidin-2-one] | 
30 | < 10 |  | CN1C[C@H]2C[C@@H]1CN2c1ccc(Nc2ncc3c(n2)N(c2cccc(N4C(=O)OCC4(C)C)n2)[C@@H]2CC(C)(C)OC[C@]32C)cc1 [Example 795, 4,4-dimethyl-3-(6-((4bR,8aR)-4b,7,7-trimethyl-2-((4-((1R,4R)-5-methyl-2,5-diazabicyclo[2.2.1]heptan-2-yl)phenyl)amino)-4b,7,8,8a-tetrahydropyrano[3′,4′:4,5]pyrrolo[2,3-d]pyrimidin-9(5H)-yl)pyridin-2-yl)oxazolidin-2-one] | 
31 | 10 to 100 |  | CC1(C)CC2N(c3cccc([C@@H]4COCCN4)n3)c3nc(Nc4ccc(N5CCOCC5)cc4)ncc3C2(C)CO1 (stereo in doubt) [Example 733, (4bS,8aS)-4b,7,7-trimethyl-9-(6-((R)-morpholin-3-yl)pyridin-2-yl)-N-(4-morpholinophenyl)-4b,5,7,8,8a,9-hexahydropyrano[3′,4′:4,5]pyrrolo[2,3-d]pyrimidin-2-amine] | 
32 | 100 to 1000 |  | CN1CC2CC1CN2c1ccc(Nc2ncc3c(n2)N(c2cccc(N=S(C)(C)=O)c2)C2CC(C)(C)OCC32C)cc1 (single isomer, unassigned) [Example 711] | 
33 | 10 to 100 |  | CN1CC[C@H](c2ccc(Nc3ncc4c(n3)N(c3cccc(N5CCCC5=O)n3)[C@H]3CC(C)(C)OC[C@@]43C)cc2)C1 [Example 635, 1-(6-((4bS,8aS)-4b,7,7-trimethyl-2-((4-((R)-1-methylpyrrolidin-3-yl)phenyl)amino)-4b,7,8,8a-tetrahydropyrano[3′,4′:4,5]pyrrolo[2,3-d]pyrimidin-9(5H)-yl)pyridin-2-yl)pyrrolidin-2-one] | 
34 | 100 to 1000 |  | CN1C[C@H]2C[C@@H]1CN2c1ccc(Nc2ncc3c(n2)N(c2cccc(N4CCCC4=O)n2)[C@H]2CC(C)(C)OC[C@@]32C)cc1 [Example 630, 1-(6-((4bS,8aS)-4b,7,7-trimethyl-2-((4-((1R,4R)-5-methyl-2,5-diazabicyclo[2.2.1]heptan-2-yl)phenyl)amino)-4b,7,8,8a-tetrahydropyrano[3′,4′:4,5]pyrrolo[2,3-d]pyrimidin-9(5H)-yl)pyridin-2-yl)pyrrolidin-2-one] | 
35 | < 10 |  | CC[C@@]1(O)CCc2ccc(N3c4nc(Nc5ccc(N6C[C@H]7C[C@@H]6CN7C)cc5)ncc4[C@@]4(C)COC(C)(C)C[C@@H]34)nc21 [Example 790, (R)-7-ethyl-2-((4bR,8aR)-4b,7,7-trimethyl-2-((4-((1R,4R)-5-methyl-2,5-diazabicyclo[2.2.1]heptan-2-yl)phenyl)amino)-4b,7,8,8a-tetrahydropyrano[3′,4′:4,5]pyrrolo[2,3-d]pyrimidin-9(5H)-yl)-6,7-dihydro-5H-cyclopenta[b]pyridin-7-ol] | 
